Assay results taken from patent US20230066011A1, “PYRROLOPYRIMIDINE DERIVATIVE, AND PHARMACEUTICAL COMPOSITION FOR PREVENTING OR TREATING PROTEIN KINASE-RELATED DISEASE COMPRISING SAME AS ACTIVE INGREDIENT” (VORONOI CO., LTD., priority 2019, published 2023).

Key:
[1] = target: T1, human GST-DYRK1A (Homo sapiens, UniProt Q13627); experiment: GST-DYRK1A enzyme inhibition, ADP-Glo kinase assay; type: biochemical; settings: ATP 10 μM, GST-DYRK1A full length, read-out: DYRK1 IC50
T1 construct: purified human GST-DYRK1A (full length, Thermo Scientifics) enzyme; purchased Thermo Scientifics
Method in brief: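 Full-length enzyme (10 ng) was incubated with 10 μM ATP and a specific substrate for 1 h at 25 °C in 40 mM Tris-HCl pH 7.4, 20 mM MgCl2, 0.5 mg/mL BSA, 50 μM DTT. Luminescence was read against a solvent control, and IC50 values were derived from 3 data sets.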

[2] = target: T2, human GST-CLK1 (Homo sapiens, UniProt P49759); experiment: GST-CLK1 enzyme inhibition, ADP-Glo kinase assay; type: biochemical; settings: ATP 10 μM, GST-CLK1 129-end
T2 construct: purified human GST-CLK1 (129-end, SignalChem) enzyme; purchased SignalChem
T2 sequence (P49759 129-484 limits assumed): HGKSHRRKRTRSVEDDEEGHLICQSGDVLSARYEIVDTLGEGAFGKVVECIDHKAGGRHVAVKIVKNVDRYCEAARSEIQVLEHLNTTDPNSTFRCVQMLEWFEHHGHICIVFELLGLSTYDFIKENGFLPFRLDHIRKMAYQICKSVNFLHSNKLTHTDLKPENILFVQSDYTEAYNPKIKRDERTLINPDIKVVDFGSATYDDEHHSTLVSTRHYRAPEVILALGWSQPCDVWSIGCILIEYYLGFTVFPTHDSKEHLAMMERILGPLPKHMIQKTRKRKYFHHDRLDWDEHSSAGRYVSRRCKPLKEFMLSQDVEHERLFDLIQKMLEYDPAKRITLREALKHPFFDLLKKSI
Method in brief: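 ADP-Glo luminescence read-out, relative to untreated solvent control, gave IC50 (nM) from triplicate data sets. Reactions ran an hour at 25° C with 3 ng GST-CLK1 (residues 129-end), 10 μM ATP and specific substrate in Tris-HCl pH 7.4 buffer with MgCl2, BSA and DTT.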

[3] = tested on: MDA-MB-231 cell line; experiment: Inhibition of proliferation of MDA-MB-231 cancer cells (Cell Titer-Glo); type: cell-based; settings: Homo sapiens, 72 hours
Method in brief: (§1)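 Luminescence from Cell Titer-Glo (10 min, room temperature) gave GI50 after 72 h compound treatment. Final compound levels spanned 0.000169–10.000000 μM over 11 points, 3-fold steps; 2,000 cells/well grown in DMEM or RPMI.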

[4] = tested on: MDA-MB-468 cell line; experiment: Inhibition of proliferation of MDA-MB-468 cancer cells (Cell Titer-Glo); type: cell-based; settings: Homo sapiens, MDA-MB-468, 72 hours
Method in brief: as §1

[5] = target: T3, TTK (Homo sapiens, UniProt P33981); experiment: TTK enzyme inhibition, ADP-Glo kinase assay; type: biochemical; design: purchased SignalChem T20-10G; settings: ATP 5 μM
T3 sequence (P33981 1-857): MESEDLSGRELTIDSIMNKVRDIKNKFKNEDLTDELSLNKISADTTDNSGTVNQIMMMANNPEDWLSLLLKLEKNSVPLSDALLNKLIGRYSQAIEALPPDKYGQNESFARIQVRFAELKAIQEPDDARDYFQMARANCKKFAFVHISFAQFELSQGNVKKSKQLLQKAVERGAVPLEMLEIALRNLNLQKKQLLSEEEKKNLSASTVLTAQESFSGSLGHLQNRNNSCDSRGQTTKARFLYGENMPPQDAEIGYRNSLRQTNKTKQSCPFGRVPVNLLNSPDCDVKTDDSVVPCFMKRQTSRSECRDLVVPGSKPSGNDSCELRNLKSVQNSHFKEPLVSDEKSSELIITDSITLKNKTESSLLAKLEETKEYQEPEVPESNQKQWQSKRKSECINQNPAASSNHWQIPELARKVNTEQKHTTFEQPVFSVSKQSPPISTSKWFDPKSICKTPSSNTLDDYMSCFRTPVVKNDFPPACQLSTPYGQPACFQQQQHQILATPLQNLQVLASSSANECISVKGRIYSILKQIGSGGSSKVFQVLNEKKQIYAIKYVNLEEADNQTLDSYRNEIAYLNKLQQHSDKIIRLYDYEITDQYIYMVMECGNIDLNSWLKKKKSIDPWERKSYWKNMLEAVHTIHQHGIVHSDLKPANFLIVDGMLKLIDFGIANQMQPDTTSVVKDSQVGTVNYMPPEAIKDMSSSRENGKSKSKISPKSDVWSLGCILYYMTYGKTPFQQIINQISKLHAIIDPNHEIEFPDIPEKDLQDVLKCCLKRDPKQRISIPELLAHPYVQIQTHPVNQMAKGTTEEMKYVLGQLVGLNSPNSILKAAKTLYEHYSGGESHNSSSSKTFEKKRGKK
Protocol: To evaluate an inhibitory activity of the compound according to the present invention against LRRK2, LRRK2 (G2019S), DYRK1, CLK1, and TTK kinases, experiments were performed as follows.
Each of the Example compounds was reacted with a purified human TTK (SignalChem #T20-10G) enzyme to evaluate an ability to inhibit an enzyme using a method as described below. A composition of 40 mM Tris-HCl (pH 7.4), 20 mM MgCl2, 0.1 mg/mL BSA (a 5× kinase buffer, SignalChem #K03-09), and 50 μM DTT (SignalChem #D86-09B) was used as a reaction buffer, and all reactions of test substances were performed in the reaction buffer. Each of the compounds was diluted […] from a 10 mM DMSO stock using a serial dilution method, and enzyme activities were measured at final compound concentrations of 1, 0.333333, 0.111111, 0.037037, 0.012346, 0.004115, 0.001372, 0.000457, 0.000152, 0.000051, and 0.000017 μM. In the test, purified ATP (5 μM, Promega #V6930) and an MBP enzyme substrate (0.2 μg, SignalChem M42-51N) were reacted with a human TTK (7.5 ng) enzyme at 25° C. for 4 hours, and the enzyme activities were then determined using an in vitro ADP-Glo™ kinase assay (Promega #V6930). An enzyme-activity reaction solution, an ADP-Glo reaction solution, and an enzyme-ability detection solution were reacted at a ratio of 2:2:1 to measure a degree of inhibition of the enzyme activity with luminescence. The degree of inhibition of the enzyme activity according to the treatment concentration of each of the compounds was calculated based on the fluorescence of the enzyme activity of the solvent control which was not treated with the compound. In this case, the concentration of each of the compounds inhibiting 50% of the enzyme activity was determined to be an IC50 (nM) value, and calculated using Prism (Version 8.2 GraphPad) software.

[6] = tested on: SHP-77; experiment: Inhibition of proliferation of SHP-77 cancer cells (Cell Titer-Glo); type: cell-based; settings: Homo sapiens, SHP77, 72 hours
Method in brief: as §1

| SMILES | IC50 [1] | IC50 [2] | GI50 [3] | GI50 [4] | IC50 [5] | GI50 [6] |
| --- | --- | --- | --- | --- | --- | --- |
| N#Cc1c[nH]c2nc(Nc3ccc(C(=O)N4CCN(C5CC5)CC4)c4c3OCCO4)nc(NC3CCCC3)c12 [Example 148, 4-(cyclopentylamino)-2-((8-(4-cyclopropylpiperazine-1-carbonyl)-2,3-dihydrobenzo[b][1,4]dioxin-5-yl)amino)-7H-pyrrolo[2,3-d]pyrimidine-5-carbonitrile] | 301 to 1000 nM | 301 to 1000 nM | 101 to 300 nM | 101 to 300 nM | < 100 nM | – |
| CN1CCC(NC(=O)c2ccc(Nc3nc(NC4CCCCC4)c4c(C#N)c[nH]c4n3)c3c2OCCO3)CC1 [Example 143, 8-((5-cyano-4-(cyclohexylamino)-7H-pyrrolo[2,3-d]pyrimidin-2-yl)amino)-N-(1-methylpiperidin-4-yl)-2,3-dihydrobenzo[b][1,4]dioxin-5-carboxamide] | 301 to 1000 nM | < 100 nM | 51 to 100 nM | 51 to 100 nM | < 100 nM | – |
| CC[C@@H](C)Nc1nc(Nc2ccc(S(=O)(=O)N3CCOCC3)cc2OC)nc2[nH]cc(C#N)c12 [Example 67, (R)-4-(sec-butylamino)-2-((2-methoxy-4-(morpholinosulfonyl)phenyl)amino)-7H-pyrrolo[2,3-d]pyrimidine-5-carbonitrile] | 301 to 1000 nM | 301 to 1000 nM | < 50 nM | – | < 100 nM | < 50 nM |
| CN1CCC(NC(=O)c2ccc(Nc3nc(NC4CCCC4)c4c(C#N)c[nH]c4n3)c3c2OCCO3)CC1 [Example 146, 8-((5-cyano-4-(cyclopentylamino)-7H-pyrrolo[2,3-d]pyrimidin-2-yl)amino)-N-(1-methylpiperidin-4-yl)-2,3-dihydrobenzo[b][1,4]dioxin-5-carboxamide] | – | – | 101 to 300 nM | 101 to 300 nM | < 100 nM | – |
| N#Cc1c[nH]c2nc(Nc3ccc(C(=O)N4CCN(C5COC5)CC4)c4c3OCCO4)nc(NC3CCCC3)c12 [Example 147, 4-(cyclopentylamino)-2-((8-(4-(oxetan-3-yl)piperazine-1-carbonyl)-2,3-dihydrobenzo[b][1,4]dioxin-5-yl)amino)-7H-pyrrolo[2,3-d]pyrimidin-5-carbonitrile] | 301 to 1000 nM | < 100 nM | 101 to 300 nM | 51 to 100 nM | < 100 nM | – |
| N#Cc1c[nH]c2nc(Nc3ccc(C(=O)N4CCOCC4)c4c3OCO4)nc(NC3CCCC3)c12 [Example 152, 4-(cyclopentylamino)-2-((7-(morpholine-4-carbonyl)benzo[d][1,3]dioxol-4-yl)amino)-7H-pyrrolo[2,3-d]pyrimidine-5-carbonitrile] | 101 to 300 nM | < 100 nM | 51 to 100 nM | 51 to 100 nM | < 100 nM | – |
| CCN1CCP(=O)(c2ccc(Nc3nc(NC4CCCCC4)c4c(C#N)c[nH]c4n3)c(OC)c2)CC1 [Example 151, 4-(cyclohexylamino)-2-((4-(1-ethyl-4-oxido-1,4-azaphosphinan-4-yl)-2-methoxyphenyl)amino)-7H-pyrrolo[2,3-d]pyrimidine-5-carbonitrile] | 301 to 1000 nM | 101 to 300 nM | 101 to 300 nM | 51 to 100 nM | < 100 nM | – |
| N#Cc1c[nH]c2nc(Nc3ccc(C(=O)N4CCOCC4)c4c3OCO4)nc(NC3CCCCC3)c12 [Example 150, 4-(cyclohexylamino)-2-((7-(morpholine-4-carbonyl)benzo[d][1,3]dioxol-4-yl)amino)-7H-pyrrolo[2,3-d]pyrimidine-5-carbonitrile] | 301 to 1000 nM | 301 to 1000 nM | 51 to 100 nM | 51 to 100 nM | < 100 nM | – |
| N#Cc1c[nH]c2nc(Nc3ccc(C(=O)N4CCN(C5CC5)CC4)c4c3OCCO4)nc(NC3CCCCC3)c12 [Example 145] | 301 to 1000 nM | 301 to 1000 nM | 51 to 100 nM | 51 to 100 nM | < 100 nM | – |
| N#Cc1c[nH]c2nc(Nc3ccc(C(=O)N4CCCC4)c4c3OCCO4)nc(NC3CCCCC3)c12 [Example 149, 4-(cyclohexylamino)-2-((8-(pyrrolidine-1-carbonyl)-2,3-dihydrobenzo[b][1,4]dioxin-5-yl)amino)-7H-pyrrolo[2,3-d]pyrimidine-5-carbonitrile] | 301 to 1000 nM | 301 to 1000 nM | < 50 nM | 51 to 100 nM | < 100 nM | – |
| N#Cc1c[nH]c2nc(Nc3ccc(C(=O)N4CCN(C5COC5)CC4)c4c3OCCO4)nc(NC3CCCCC3)c12 [Example 144, 4-(cyclohexylamino)-2-((8-(4-(oxetan-3-yl)piperazine-1-carbonyl)-2,3-dihydrobenzo[b][1,4]dioxin-5-yl)amino)-7H-pyrrolo[2,3-d]pyrimidine-5-carbonitrile] | 301 to 1000 nM | 101 to 300 nM | < 50 nM | 51 to 100 nM | < 100 nM | – |
